In patent US7396837B2, “Antitumoral analogs of lamellarins” (Pharma Mar, S.A.U., priority 2002, dated 2008):
Where two headings read alike, the source gives them in different places.

Tests used:
Type in all cases: cell-based
[1] = SRB colorimetric cell growth inhibition assay, H-MEC-1; conditions: human; H-MEC-1; cell killing (cytotoxic effect); read-out: LC50 H-MEC-1
Excerpt: A colorimetric type of assay, using sulforhodamine B (SRB) reaction has been adapted for a quantitative measurement of cell growth and viability (following the technique described by P. A. Skehan, et al., J. Natl. Cancer Inst. 1990, 82, 1107-1112).
This form of assay employs 96 well cell culture microplates of 9 mm diameter (T. Mosmann et al., J. of Immunological Methods 1983, 65, 55-63; G. T. Faircloth et al., J. of Tissue and Culture Methods 1988, 11, 201-205).
Most of the cell lines are obtained from American Type Culture Collection (ATCC) derived from different human cancer types.
The values for mean +/− SD of data from triplicate wells are calculated. Some parameters for cellular responses can be calculated: GI=growth inhibition, TGI=total growth inhibition (cytostatic effect) and LC=cell killing (cytotoxic effect).

[2] = test system: SK-BR-3; assay: SRB colorimetric cell growth inhibition assay, SK-BR-3; conditions: Homo sapiens; for GI50: GI=growth inhibition, read-out: GI50 SK-BR-3; for CC50: LC=cell killing (cytotoxic effect); for IC (TGI): TGI=total growth inhibition (cytostatic effect), read-out: TGI SK-BR-3
Outline: (§1)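 Human tumour cells were exposed continuously to the test sample, and growth and viability were quantified by sulforhodamine B staining. Means ± SD came from triplicate wells, and GI, TGI (cytostatic) and LC (cell killing) parameters were derived.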

[3] = test system: A-549; assay: SRB colorimetric cell growth inhibition assay, A-549; conditions: Homo sapiens; for GI50: GI=growth inhibition, read-out: GI50 A-549; for CC50: cell killing (cytotoxic effect); for IC (TGI): total growth inhibition (cytostatic effect), read-out: TGI A-549
Outline: as §1

[4] = test system: IGROV; assay: SRB colorimetric cell growth inhibition assay, IGROV; conditions: Homo sapiens, IGROV; for GI50: GI=growth inhibition, read-out: GI50 IGROV; for CC50: LC=cell killing (cytotoxic effect); for IC (TGI): TGI=total growth inhibition (cytostatic effect), read-out: TGI IGROV
Outline: as §1

[5] = test system: DU-145; assay: SRB colorimetric cell growth inhibition assay, DU-145; conditions: Homo sapiens; for GI50: GI=growth inhibition, read-out: GI50 DU-145; for CC50: LC=cell killing (cytotoxic effect); for IC (TGI): TGI=total growth inhibition (cytostatic effect), read-out: TGI DU-145
Outline: as §1

[6] = test system: LoVo; assay: SRB colorimetric cell growth inhibition assay, LoVo; conditions: Homo sapiens, LoVo; for GI50: GI=growth inhibition, read-out: GI50 LOVO; for CC50: cell killing (cytotoxic effect); for IC (TGI): total growth inhibition (cytostatic effect), read-out: TGI LOVO
Outline: as §1

[7] = test system: HT-29; assay: SRB colorimetric cell growth inhibition assay, HT-29; conditions: Homo sapiens; for GI50: GI=growth inhibition, read-out: GI50 HT-29; for CC50: cell killing (cytotoxic effect); for IC (TGI): total growth inhibition (cytostatic effect), read-out: TGI HT-29
Outline: as §1

[8] = test system: IGROV-ET; assay: SRB colorimetric cell growth inhibition assay, IGROV-ET (ET-743 resistant); conditions: Homo sapiens; for GI50: GI=growth inhibition, read-out: GI50 IGROV-ET; for CC50: LC=cell killing (cytotoxic effect); for IC (TGI): TGI=total growth inhibition (cytostatic effect), read-out: TGI IGROV-ET
Outline: as §1

[9] = test system: LoVo-Dox; assay: SRB colorimetric cell growth inhibition assay, LoVo-Dox (MDR); conditions: Homo sapiens; for GI50: GI=growth inhibition, read-out: GI50 LOVO-DOX; for CC50: cell killing (cytotoxic effect); for IC (TGI): total growth inhibition (cytostatic effect), read-out: TGI LOVO-DOX
Outline: as §1

[10] = test system: K-562; assay: SRB colorimetric cell growth inhibition assay, K-562; conditions: Homo sapiens; for GI50: GI=growth inhibition, read-out: GI50 K-562; for CC50: cell killing (cytotoxic effect); for IC (TGI): total growth inhibition (cytostatic effect), read-out: TGI K-562
Outline: as §1

[11] = test system: PANC-1; assay: SRB colorimetric cell growth inhibition assay, PANC-1; conditions: Homo sapiens; for GI50: GI=growth inhibition, read-out: GI50 PANC-1; for CC50: cell killing (cytotoxic effect); for IC (TGI): total growth inhibition (cytostatic effect), read-out: TGI PANC-1
Outline: as §1

[12] = test system: SKOV-3; assay: SRB colorimetric cell growth inhibition assay, SKOV-3; conditions: Homo sapiens; for GI50: SK-OV-3, SKOV-3, GI=growth inhibition, read-out: GI50 SKOV-3; for IC (TGI): TGI=total growth inhibition (cytostatic effect), read-out: TGI SKOV-3
Outline: (§2)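 SRB colorimetric readout of cell growth/viability in 96-well format. Means ± SD from triplicate wells; GI (growth inhibition), TGI (total growth inhibition, cytostatic) and LC (cell killing, cytotoxic) parameters derived.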

[13] = SRB colorimetric cell growth inhibition assay, H-MEC-1; conditions: human
Outline: as §2

[14] = test system: H-MEC-1; assay: as above; conditions: Homo sapiens, HMEC-1, H-MEC-1; for GI50: GI=growth inhibition; for IC (TGI): TGI=total growth inhibition (cytostatic effect), read-out: TGI H-MEC-1
Outline: as §2

[15] = test system: SK-MEL-28; assay: SRB colorimetric cell growth inhibition assay, SK-MEL-28; conditions: Homo sapiens; for GI50: GI=growth inhibition, read-out: GI50 MEL-28; for CC50: LC=cell killing (cytotoxic effect); for IC (TGI): TGI=total growth inhibition (cytostatic effect), read-out: TGI MEL-28
Outline: as §1

[16] = test system: LNCaP; assay: SRB colorimetric cell growth inhibition assay, LNCaP; conditions: Homo sapiens, LNCaP; for GI50: GI=growth inhibition, read-out: GI50 LN-caP; for CC50: LC=cell killing (cytotoxic effect); for IC (TGI): TGI=total growth inhibition (cytostatic effect), read-out: TGI LN-caP
Outline: as §1

## COc1cc(-c2c3n(c4c(=O)oc5cc(OC(=O)[C@@H](N)C[S][Fm])c(OC)cc5c24)CCc2c-3cc(OC)c(OC)c2OC(=O)[C@@H](N)C[S][Fm])ccc1OC(=O)[C@@H](N)C[S][Fm] [Compound 23]
[1]
  LC50 (concentration giving 50% net cell killing): 2870 nM

## COc1cc2ccn3c(c(-c4ccc(OS(=O)(=O)C(F)(F)F)c(OC)c4)c4c5cc(OC)c(OS(=O)(=O)C(F)(F)F)cc5oc(=O)c43)c2cc1OC [Compound 126]
[2]; SK-BR-3, SK-BR-3
  GI50: 2110 nM
  IC (TGI): 5.36 µM
[2]; SK-BR-3, SK-BR-3, read-out: LC50 SK-BR-3
  CC50: 1.29 µM
[3]; A549, A-549
  GI50: 2980 nM
  IC (TGI): 5.74 µM
[3]; A549, A-549, read-out: LC50 A-549
  CC50: 2.25 µM
[4]
  GI50: 2260 nM
  IC (TGI): 5.32 µM
[4]; read-out: LC50 IGROV
  CC50: 12.6 µM
[5]; DU-145, DU-145
  GI50: 2530 nM
  IC (TGI): 6.49 µM
[5]; DU-145, DU-145, read-out: LC50 DU-145
  CC50: 12.9 µM
[6]
  GI50: 2560 nM
  IC (TGI): 5.68 µM
[6]; read-out: LC50 LOVO
  CC50: 12.6 µM
[7]; HT-29, HT-29
  GI50: 3000 nM
  IC (TGI): 9.22 µM
[7]; HT-29, HT-29, read-out: LC50 HT-29
  CC50: 12.9 µM
[8]; IGROV-ET
  GI50: 3880 nM
  IC (TGI): 7.87 µM
[8]; IGROV-ET, read-out: LC50 IGROV-ET
  CC50: 12.9 µM
[9]; LOVO-DOX
  GI50: 12.9 µM
  IC (TGI): 12.9 µM
[9]; LOVO-DOX, read-out: LC50 LOVO-DOX
  CC50: 12.9 µM
[10]; K562, K-562
  GI50: 2150 nM
  IC (TGI): 4.32 µM
[10]; K562, K-562, read-out: LC50 K-562
  CC50: 8.69 µM
[11]; PANC-1, PANC-1
  GI50: 2190 nM
  IC (TGI): 6.57 µM
[11]; PANC-1, PANC-1, read-out: LC50 PANC-1
  CC50: 12.9 µM
[12]
  GI50: 3480 nM
[12]; SK-OV-3, SKOV-3, LC=cell killing (cytotoxic effect), read-out: LC50 SKOV-3
  CC50: 12.9 µM
[12]; SK-OV-3, SKOV-3
  IC (TGI): 6.98 µM
[13]; H-MEC-1 cells, H-MEC-1, LC=cell killing (cytotoxic effect), read-out: LC50 H-MEC-1
  CC50: 6.46 µM
[14]
  GI50: 746 nM
  IC (TGI): 2.25 µM
[15]; SK-MEL-28, MEL-28
  GI50: 2930 nM
  IC (TGI): 5.27 µM
[15]; SK-MEL-28, MEL-28, read-out: LC50 MEL-28
  CC50: 9.48 µM
[16]; LN-caP
  GI50: 1250 nM
  IC (TGI): 2.76 µM
[16]; LN-caP, read-out: LC50 LN-caP
  CC50: 6.04 µM

## COc1cc(-c2c3n(c4c(=O)oc5cc(OC(=O)[C@@H]6CCCN6)c(OC)cc5c24)CCc2cc(OC(=O)[C@@H]4CCCN4)c(OC)cc2-3)ccc1OC(=O)[C@@H]1CCCN1 [Compound 134]
[2]; SK-BR-3, SK-BR-3
  GI50: 2100 nM
  IC (TGI): 4.34 µM
[2]; SK-BR-3, read-out: LC50 SK-BR-3, SK-BR-3
  CC50: 8.81 µM
[3]; A549, A-549
  GI50: 2550 nM
  IC (TGI): 4.93 µM
[3]; A549, read-out: LC50 A-549, A-549
  CC50: 8.81 µM
[4]; read-out: LC50 IGROV, IGROV
  CC50: 6.5 µM
[4]
  GI50: 943 nM
  IC (TGI): 2.48 µM
[5]; DU-145, DU-145
  GI50: 2120 nM
  IC (TGI): 4.47 µM
[5]; DU-145, read-out: LC50 DU-145, DU-145
  CC50: 8.81 µM
[6]; read-out: LC50 LOVO, LOVO
  CC50: 8.67 µM
[6]
  GI50: 2050 nM
  IC (TGI): 4.21 µM
[7]; HT-29, HT-29
  GI50: 2850 nM
[7]; HT-29, read-out: LC50 HT-29, HT-29
  CC50: 8.81 µM
[7]; HT-29
  IC (TGI): 8.81 µM
[8]; IGROV-ET
  GI50: 482 nM
  IC (TGI): 2.14 µM
[8]; read-out: LC50 IGROV-ET, IGROV-ET
  CC50: 7.58 µM
[9]; LOVO-DOX
  GI50: 0.519 µM
  IC (TGI): 1.99 µM
[9]; read-out: LC50 LOVO-DOX, LOVO-DOX
  CC50: 7.79 µM
[10]; K562, K-562
  GI50: 571 nM
  IC (TGI): 4.93 µM
[10]; K562, read-out: LC50 K-562, K-562
  CC50: 8.81 µM
[11]; PANC-1, PANC-1
  GI50: 2170 nM
  IC (TGI): 4.53 µM
[11]; PANC-1, read-out: LC50 PANC-1, PANC-1
  CC50: 8.81 µM
[12]
  GI50: 739 nM
[12]; SK-OV-3, read-out: LC50 SKOV-3
  CC50: 4.26 µM
[12]; SK-OV-3, SKOV-3
  IC (TGI): 1.85 µM
[13]; LC50 H-MEC-1
  CC50: 8.81 µM
[14]
  GI50: 2130 nM
  IC (TGI): 6.51 µM
[15]; SK-MEL-28, MEL-28
  GI50: 1730 nM
  IC (TGI): 3.23 µM
[15]; SK-MEL-28, read-out: LC50 MEL-28, MEL-28
  CC50: 6.04 µM
[16]; LN-caP
  GI50: 458 nM
  IC (TGI): 1.34 µM
[16]; read-out: LC50 LN-caP, LN-caP
  CC50: 4.16 µM
